Counter-ions that a name gives are not always drawn.

The term melting point denotes the temperature of the solid-liquid transition.

Regarding `CNC(=O)c1cc(COC(=O)N2CCC3(CC2)CC(Oc2ccc4ccncc4c2)C3)on1` [Compound 21, 3-methylcarbamoyl-isoxazol-5-ylmethyl 2-(isoquinolin-7-yloxy)-7-aza-spiro[3.5]nonane-7-carboxylate], the melting point lay within 79 to 81 °C.
The same measure for `CNC(=O)c1csc(COC(=O)N2CCC3(CC2)CC(Oc2cccc(-c4ccc(F)cc4)c2)C3)n1` [Compound 20, 4-methylcarbamoyl-thiazol-2-ylmethyl 2-(4′-fluorobiphenyl-3-yloxy)-7-aza-spiro[3.5]nonane-7-carboxylate]: 130 to 132 °C; for `CNC(=O)c1cc(COC(=O)N2CC3(CC(Oc4ccc(Cl)c(F)c4)C3)C2)on1` [Compound 23, 3-methylcarbamoyl-isoxazol-5-ylmethyl 6-(4-chloro-3-fluorophenoxy)-2-aza-spiro[3.3]heptane-2-carboxylate]: 84 to 86 °C; for `CNC(=O)c1cc(COC(=O)N2CCC3(CC2)CC(Oc2ccc(Cl)cc2)C3)on1` [Compound 3, 3-methylcarbamoyl-isoxazol-5-ylmethyl 2-(4-chlorophenoxy)-7-aza-spiro[3.5]nonane-7-carboxylate]: 147 to 149 °C.
The same measure for `CNC(=O)c1cc(COC(=O)N2CCC3(CC2)CC(Oc2ccc(Cl)c(F)c2)C3)on1` [Compound 22, 3-methylcarbamoyl-isoxazol-5-ylmethyl 2-(4-chloro-3-fluorophenoxy)-7-aza-spiro[3.5]nonane-7-carboxylate]: 107 to 108 °C.
The same measure for `NC(=O)c1cc(COC(=O)N2CCC3(CC2)CC(Oc2ccc(Cl)cc2)C3)on1` [Compound 4, 3-carbamoyl-isoxazol-5-ylmethyl 2-(4-chlorophenoxy)-7-aza-spiro[3.5]nonane-7-carboxylate]: 70 to 72 °C; for `CCOc1ccc2ccc(OC3CC4(CCN(C(=O)OCc5cc(C(=O)NC)no5)CC4)C3)cc2c1` [Compound 8, 3-methylcarbamoyl-isoxazol-5-ylmethyl 2-(7-ethoxynaphthalen-2-yloxy)-7-aza-spiro[3.5]nonane-7-carboxylate]: 73 to 75 °C.
For the compound `CNC(=O)c1cc(COC(=O)N2CCC3(CC(Oc4ccc(Cl)c5ccccc45)C3)C2)on1` (single isomer, unassigned) [Compound 31, 3-methylcarbamoyl-isoxazol-5-ylmethyl 2-(4-chloronaphthalen-1-yloxy)-6-aza-spiro[3.4]octane-6-carboxylate], the melting point was in the range of 87 to 92 °C.
The same measure for `NC(=O)c1cc(COC(=O)N2CC3(CC(Oc4ccc(Cl)c(F)c4)C3)C2)on1` [Compound 24, 3-carbamoyl-isoxazol-5-ylmethyl 6-(4-chloro-3-fluorophenoxy)-2-aza-spiro[3.3]heptane-2-carboxylate]: 135 to 137 °C; for `NC(=O)c1cc(COC(=O)N2CCC3(CC(Oc4ccc(Cl)c(F)c4)C3)C2)on1` (single isomer, unassigned) [Compound 26, 3-carbamoyl-isoxazol-5-ylmethyl 2-(4-chloro-3-fluorophenoxy)-6-aza-spiro[3.4]octane-6-carboxylate]: 83 to 92 °C.
In the case of `NC(=O)c1cc(COC(=O)N2CCC3(CC(Oc4ccc(-c5ccc(F)cc5)cc4)C3)C2)on1` (single isomer, unassigned) [Compound 28, 3-carbamoyl-isoxazol-5-ylmethyl 2-(4′-fluorobiphenyl-4-yloxy)-6-aza-spiro[3.4]octane-6-carboxylate], the melting point is 131 to 133 °C.
In the case of `Cn1ncnc1COC(=O)N1CCC2(CC1)CC(Oc1ccc(Cl)cc1)C2` (as salt: HCl) it was 163 to 165 °C.
In the case of `CNC(=O)c1cc(COC(=O)N2CCC3(CC(Oc4ccc(Cl)cc4)C3)C2)on1` (single isomer, unassigned) it was 94 to 97 °C; in that of `NC(=O)c1cc(COC(=O)N2CCC3(CC(Oc4ccc(Cl)c5ccccc45)C3)C2)on1` (single isomer, unassigned) [Compound 30, 3-carbamoyl-isoxazol-5-ylmethyl 2-(4-chloronaphthalen-1-yloxy)-6-aza-spiro[3.4]octane-6-carboxylate], 149 to 150 °C; in that of `O=C(OCc1cscn1)N1CCC2(CC1)CC(Oc1ccc(Cl)cc1)C2`, 86 to 88 °C.
In the case of `NC(=O)c1cc(COC(=O)N2CCC3(CC2)CC(Oc2ccc(-c4ccc(F)cc4)cc2)C3)on1` [Compound 18, 3-carbamoyl-isoxazol-5-ylmethyl 2-(4′-fluorobiphenyl-4-yloxy)-7-aza-spiro[3.5]nonane-7-carboxylate], the melting point was in the range of 163 to 165 °C.
In the case of `CNC(=O)c1cc(COC(=O)N2CCC3(CC2)CC(Oc2ccc(Cl)c4ccccc24)C3)on1` [Compound 17, 3-methylcarbamoyl-isoxazol-5-ylmethyl 2-(4-chloronaphthalen-1-yloxy)-7-aza-spiro[3.5]nonane-7-carboxylate] it was 62 to 64 °C; in that of `CCOc1ccc2ccc(OC3CC4(CCN(C(=O)OCc5cc(C(N)=O)no5)CC4)C3)cc2c1` [Compound 13, 3-carbamoyl-isoxazol-5-ylmethyl 2-(7-ethoxynaphthalen-2-yloxy)-7-aza-spiro[3.5]nonane-7-carboxylate], 114 to 116 °C.
Compound `NC(=O)c1cc(COC(=O)N2CCC3(CC2)CC(Oc2ccc(Cl)c4ccccc24)C3)on1` [Compound 16, 3-carbamoyl-isoxazol-5-ylmethyl 2-(4-chloronaphthalen-1-yloxy)-7-aza-spiro[3.5]nonane-7-carboxylate] returned a melting point of 75 to 77 °C.
In the case of `NC(=O)c1coc(COC(=O)N2CCC3(CC(Oc4cccc(C(F)(F)F)c4)C3)C2)n1` (single isomer, unassigned) [Compound 14, 4-carbamoyl-oxazol-2-ylmethyl 2-(3-trifluoromethylphenoxy)-6-aza-spiro[3.4]octane-6-carboxylate] it was 90 to 92 °C.
The same measure for `NC(=O)c1cc(COC(=O)N2CCC3(CC2)CC(Oc2cccc(-c4ccc(F)cc4)c2)C3)on1` [Compound 12, 3-carbamoyl-isoxazol-5-ylmethyl 2-(4′-fluorobiphenyl-3-yloxy)-7-aza-spiro[3.5]nonane-7-carboxylate]: 74 to 76 °C.

The record behind these values is patent US8394787B2, “7-aza-spiro[3.5]nonane-7-carboxylate derivatives, preparation thereof and therapeutic use thereof” (Sanofi, priority 2009, dated 2013).
